This is an account of results in patent US7432087B2, “Method for preparing (2S, 3R, 4S)-4-hydroxyisoleucine and analogues thereof” (Centre National de la Recherche Scientifque, priority 2002, dated 2008).

The conditions of data set [1]: background statement with literature references; cited from earlier work.

In the case of `C[C@@H]([C@H](C)O)[C@H](N)C(=O)O` [compound 1, (2S,3R,4S)-4-hydroxyisoleucine], in data set [1], the insulinotropic activity entry is given as “possesses an insulinotropic activity”.
In general, melting point refers to the temperature, or range, at which the solid turns liquid. For the compound `C[C@@H]([C@H](C)O)[C@@H](NCc1ccccc1)C(=O)O` [(2R)-N-Bn-1, (2R,3R,4S)-N-benzyl-4-hydroxyisoleucine], the melting point was 193 to 194 °C (dec.).
